Test results taken from ChEMBL document CHEMBL3885881, “DrugMatrix”.

Species on record: Rattus norvegicus
Test: DrugMatrix - Regimen: Daily Repeat
Type: toxicity, organism-based, Sprague-Dawley
Parameters: regimen Daily Repeat, gender Male, age 6-8 weeks
Settings: in vivo, po, route oral GAVAGE, vehicle .5 % CMC; for ABSOLUTE BASOPHIL / BASOPHIL / EOSINOPHIL / ERYTHROCYTE COUNT / HEMATOCRIT / HEMOGLOBIN / LEUKOCYTE COUNT / LYMPHOCYTE / MEAN CORPUSCULAR HEMOGLOBIN / MEAN CORPUSCULAR HEMOGLOBIN CONCENTRATION / MEAN CORPUSCULAR VOLUME / MONOCYTE / NEUTROPHIL / PLATELET COUNT: tissue Blood; for ALANINE AMINOTRANSFERASE / ALBUMIN / ALKALINE PHOSPHATASE / ASPARTATE AMINOTRANSFERASE / BLOOD UREA NITROGEN / CHLORIDE / CHOLESTEROL / CREATINE PHOSPHOKINASE / CREATININE / GLUCOSE / PHOSPHORUS / POTASSIUM / SODIUM / TOTAL BILIRUBIN / TOTAL PROTEIN: tissue Plasma
[1] = 0 mg/kg, 72 h, dose level Control, time 3 day
[2] = 0 mg/kg, 120 h, dose level Control, time 5 day
[3] = 100 mg/kg, 72 h, dose level Low, time 3 day
[4] = 100 mg/kg, 120 h, dose level Low, time 5 day
[5] = 390 mg/kg, 72 h, dose level High, time 3 day
[6] = 390 mg/kg, 120 h, dose level High, time 5 day

With CC[C@]1(O)CC[C@H]2[C@@H]3CCC4=CCCC[C@@H]4[C@H]3CC[C@@]21C the ABSOLUTE BASOPHIL [1] was 16.7 cells/µL, the BASOPHIL [1] was 0.17% and the EOSINOPHIL [1] was 0.62%. The “ERYTHROCYTE COUNT” value [1] was 6.55 x10E6/uL, the HEMATOCRIT [1] was 42% and the HEMOGLOBIN [1] was 13.48 G/DL. For the same compound, the “LEUKOCYTE COUNT” value [1] was 8.79 x10E3/uL, the LYMPHOCYTE [1] was 76.98% and the “MEAN CORPUSCULAR HEMOGLOBIN” value [1] was 20.57 pg. For the same compound, the “MEAN CORPUSCULAR HEMOGLOBIN CONCENTRATION” value [1] was 32.08 G/DL, the “MEAN CORPUSCULAR VOLUME” value [1] was 64.1 fL and the MONOCYTE [1] was 2.12%. The NEUTROPHIL [1] was 19%, the “PLATELET COUNT” value [1] was 1432.17 x10E3/uL and the “ALANINE AMINOTRANSFERASE” value [1] was 42.83 u/L. The ALBUMIN [1] was 3.63 G/DL, the “ALKALINE PHOSPHATASE” value [1] was 328.5 u/L and the “ASPARTATE AMINOTRANSFERASE” value [1] was 78.33 u/L. For the same compound, the “BLOOD UREA NITROGEN” value [1] was 14.5 mg/dL, the CHLORIDE [1] was 104.5 MEQ/L and the CHOLESTEROL [1] was 78.67 mg/dL. The “CREATINE PHOSPHOKINASE” value [1] was 282.33 u/L, the CREATININE [1] was 0.25 mg/dL and the GLUCOSE [1] was 173.67 mg/dL. For the same compound, the PHOSPHORUS [1] was 12.83 mg/dL, the POTASSIUM [1] was 6.7 MEQ/L and the SODIUM [1] was 145.83 MEQ/L. The “TOTAL BILIRUBIN” value [1] was 0.4 mg/dL, the “TOTAL PROTEIN” value [1] was 5.93 G/DL and the ABSOLUTE BASOPHIL [2] was 28 cells/µL. The BASOPHIL [2] was 0.26%, the EOSINOPHIL [2] was 0.44% and the “ERYTHROCYTE COUNT” value [2] was 6.99 x10E6/uL. For the same compound, the HEMATOCRIT [2] was 45.12%, the HEMOGLOBIN [2] was 14.26 G/DL and the “LEUKOCYTE COUNT” value [2] was 9.42 x10E3/uL. The LYMPHOCYTE [2] was 79.92%, the “MEAN CORPUSCULAR HEMOGLOBIN” value [2] was 20.44 pg and the “MEAN CORPUSCULAR HEMOGLOBIN CONCENTRATION” value [2] was 31.62 G/DL. For the same compound, the “MEAN CORPUSCULAR VOLUME” value [2] was 64.6 fL, the MONOCYTE [2] was 2.2% and the NEUTROPHIL [2] was 16.14%. For the same compound, the “PLATELET COUNT” value [2] was 1062.2 x10E3/uL, the “ALANINE AMINOTRANSFERASE” value [2] was 44 u/L and the ALBUMIN [2] was 3.73 G/DL. The “ALKALINE PHOSPHATASE” value [2] was 342.6 u/L, the “ASPARTATE AMINOTRANSFERASE” value [2] was 74.17 u/L and the “BLOOD UREA NITROGEN” value [2] was 13 mg/dL. For the same compound, the CHLORIDE [2] was 103 MEQ/L, the CHOLESTEROL [2] was 72.83 mg/dL and the “CREATINE PHOSPHOKINASE” value [2] was 184.67 u/L. The CREATININE [2] was 0.47 mg/dL, the GLUCOSE [2] was 168.17 mg/dL and the PHOSPHORUS [2] was 12.27 mg/dL. For the same compound, the POTASSIUM [2] was 6.98 MEQ/L, the SODIUM [2] was 147 MEQ/L and the “TOTAL BILIRUBIN” value [2] was 0.65 mg/dL. For the same compound, the “TOTAL PROTEIN” value [2] was 6.23 G/DL, the ABSOLUTE BASOPHIL [3] was 23.3 cells/µL and the BASOPHIL [3] was 0.23%. The EOSINOPHIL [3] was 0.63%, the “ERYTHROCYTE COUNT” value [3] was 7.14 x10E6/uL and the HEMATOCRIT [3] was 43.57%. For the same compound, the HEMOGLOBIN [3] was 14.03 G/DL, the “LEUKOCYTE COUNT” value [3] was 12.51 x10E3/uL and the LYMPHOCYTE [3] was 79.1%. For the same compound, the “MEAN CORPUSCULAR HEMOGLOBIN” value [3] was 19.63 pg, the “MEAN CORPUSCULAR HEMOGLOBIN CONCENTRATION” value [3] was 32.2 G/DL and the “MEAN CORPUSCULAR VOLUME” value [3] was 61 fL. For the same compound, the MONOCYTE [3] was 2.57%, the NEUTROPHIL [3] was 16.13% and the “PLATELET COUNT” value [3] was 1395 x10E3/uL. For the same compound, the “ALANINE AMINOTRANSFERASE” value [3] was 38 u/L, the ALBUMIN [3] was 3.67 G/DL and the “ALKALINE PHOSPHATASE” value [3] was 426 u/L. The “ASPARTATE AMINOTRANSFERASE” value [3] was 66.33 u/L, the “BLOOD UREA NITROGEN” value [3] was 10.33 mg/dL and the CHLORIDE [3] was 103.33 MEQ/L. The CHOLESTEROL [3] was 51 mg/dL, the “CREATINE PHOSPHOKINASE” value [3] was 235.33 u/L and the CREATININE [3] was 0.33 mg/dL. The GLUCOSE [3] was 164.33 mg/dL, the PHOSPHORUS [3] was 12.4 mg/dL and the POTASSIUM [3] was 6.67 MEQ/L. The SODIUM [3] was 145 MEQ/L, the “TOTAL BILIRUBIN” value [3] was 0.47 mg/dL and the “TOTAL PROTEIN” value [3] was 6 G/DL. The ABSOLUTE BASOPHIL [4] was 56.7 cells/µL, the BASOPHIL [4] was 0.47% and the EOSINOPHIL [4] was 0.23%. The “ERYTHROCYTE COUNT” value [4] was 6.95 x10E6/uL, the HEMATOCRIT [4] was 44.83% and the HEMOGLOBIN [4] was 14.17 G/DL. For the same compound, the “LEUKOCYTE COUNT” value [4] was 12.16 x10E3/uL, the LYMPHOCYTE [4] was 86.2% and the “MEAN CORPUSCULAR HEMOGLOBIN” value [4] was 20.37 pg. The “MEAN CORPUSCULAR HEMOGLOBIN CONCENTRATION” value [4] was 31.6 G/DL, the “MEAN CORPUSCULAR VOLUME” value [4] was 64.47 fL and the MONOCYTE [4] was 2%. The NEUTROPHIL [4] was 10.03%, the “PLATELET COUNT” value [4] was 1290.67 x10E3/uL and the “ALANINE AMINOTRANSFERASE” value [4] was 38.67 u/L. The ALBUMIN [4] was 3.67 G/DL, the “ALKALINE PHOSPHATASE” value [4] was 360 u/L and the “ASPARTATE AMINOTRANSFERASE” value [4] was 55 u/L. For the same compound, the “BLOOD UREA NITROGEN” value [4] was 10.67 mg/dL, the CHLORIDE [4] was 99 MEQ/L and the CHOLESTEROL [4] was 42 mg/dL. For the same compound, the “CREATINE PHOSPHOKINASE” value [4] was 164 u/L, the CREATININE [4] was 0.2 mg/dL and the GLUCOSE [4] was 173.33 mg/dL. For the same compound, the PHOSPHORUS [4] was 12.6 mg/dL, the POTASSIUM [4] was 7.33 MEQ/L and the SODIUM [4] was 147 MEQ/L. For the same compound, the “TOTAL BILIRUBIN” value [4] was 0.33 mg/dL, the “TOTAL PROTEIN” value [4] was 6.1 G/DL and the ABSOLUTE BASOPHIL [5] was 36.7 cells/µL. For the same compound, the BASOPHIL [5] was 0.27%, the EOSINOPHIL [5] was 0.43% and the “ERYTHROCYTE COUNT” value [5] was 7 x10E6/uL. The HEMATOCRIT [5] was 42.77%, the HEMOGLOBIN [5] was 14.3 G/DL and the “LEUKOCYTE COUNT” value [5] was 13.01 x10E3/uL. For the same compound, the LYMPHOCYTE [5] was 77.23%, the “MEAN CORPUSCULAR HEMOGLOBIN” value [5] was 20.43 pg and the “MEAN CORPUSCULAR HEMOGLOBIN CONCENTRATION” value [5] was 33.43 G/DL. The “MEAN CORPUSCULAR VOLUME” value [5] was 61.2 fL, the MONOCYTE [5] was 2.47% and the NEUTROPHIL [5] was 18%. For the same compound, the “PLATELET COUNT” value [5] was 1291 x10E3/uL, the “ALANINE AMINOTRANSFERASE” value [5] was 42.67 u/L and the ALBUMIN [5] was 3.6 G/DL. For the same compound, the “ALKALINE PHOSPHATASE” value [5] was 336.67 u/L, the “ASPARTATE AMINOTRANSFERASE” value [5] was 63.33 u/L and the “BLOOD UREA NITROGEN” value [5] was 11.33 mg/dL. The CHLORIDE [5] was 102.33 MEQ/L, the CHOLESTEROL [5] was 36.33 mg/dL and the “CREATINE PHOSPHOKINASE” value [5] was 193 u/L. It also gave a CREATININE [5] of 0.4 mg/dL, a GLUCOSE [5] of 166 mg/dL and a PHOSPHORUS [5] of 11.2 mg/dL. The POTASSIUM [5] was 6.37 MEQ/L, the SODIUM [5] was 145.67 MEQ/L and the “TOTAL BILIRUBIN” value [5] was 0.63 mg/dL. The “TOTAL PROTEIN” value [5] was 5.87 G/DL, the ABSOLUTE BASOPHIL [6] was 200 cells/µL and the BASOPHIL [6] was 1.57%. For the same compound, the EOSINOPHIL [6] was 0.97%, the “ERYTHROCYTE COUNT” value [6] was 8.29 x10E6/uL and the HEMATOCRIT [6] was 52.23%. For the same compound, the HEMOGLOBIN [6] was 16.3 G/DL, the “LEUKOCYTE COUNT” value [6] was 13.36 x10E3/uL and the LYMPHOCYTE [6] was 79.5%. For the same compound, the “MEAN CORPUSCULAR HEMOGLOBIN” value [6] was 19.77 pg, the “MEAN CORPUSCULAR HEMOGLOBIN CONCENTRATION” value [6] was 31.27 G/DL and the “MEAN CORPUSCULAR VOLUME” value [6] was 63.17 fL. For the same compound, the MONOCYTE [6] was 1.77%, the NEUTROPHIL [6] was 14.97% and the “PLATELET COUNT” value [6] was 1359.67 x10E3/uL. For the same compound, the “ALANINE AMINOTRANSFERASE” value [6] was 31 u/L, the ALBUMIN [6] was 4.13 G/DL and the “ALKALINE PHOSPHATASE” value [6] was 287.67 u/L. For the same compound, the “ASPARTATE AMINOTRANSFERASE” value [6] was 54.67 u/L, the “BLOOD UREA NITROGEN” value [6] was 14 mg/dL and the CHLORIDE [6] was 104.33 MEQ/L. The CHOLESTEROL [6] was 60 mg/dL, the “CREATINE PHOSPHOKINASE” value [6] was 166 u/L and the CREATININE [6] was 0.37 mg/dL. It also gave a GLUCOSE [6] of 151.33 mg/dL, a PHOSPHORUS [6] of 11.3 mg/dL and a POTASSIUM [6] of 7 MEQ/L. For the same compound, the SODIUM [6] was 155 MEQ/L, the “TOTAL BILIRUBIN” value [6] was 0.4 mg/dL and the “TOTAL PROTEIN” value [6] was 7.07 G/DL.
